Results published in patent US8513381B2, “Melanocortin analogs with antimicrobial activity” (Fondazione IRCCS Ca' Granda-Ospedale Maggiore Policlinico, priority 2009, dated 2013).
≈ marks a conversion by molar mass, not a printed value. Read-outs that look alike come from different tables or passages of the source. Non-standard residues stand in square brackets, D forms with d. Residues, ends and D or L forms follow the SMILES beside them. d2Nal = N[C@H](Cc1ccc2ccccc2c1)C(=O)O; Cha = N[C@@H](CC1CCCCC1)C(=O)O; Aic = NC1(C(=O)O)Cc2ccccc2C1; Tle = CC(C)(C)[C@H](N)C(=O)O; Ac6c = NC1(C(=O)O)CCCCC1; Ac5c = NC1(C(=O)O)CCCC1; Ac4c = NC1(C(=O)O)CCC1; Aib = CC(C)(N)C(=O)O

Key:
C. glabrata = assay type: cell-based, Candida glabrata
Experimental: (§1) Two Candida albicans isolates were purchased from the ATCC (No. 24433 and 76615). The other yeast isolates were obtained from the collection of Fondazione Ospedale Maggiore Policlinico, Mangiagalli e Regina Elena, Milano. The collection included C. albicans (7 isolates), C. glabrata (3 isolates), and C. krusei (3 isolates). Antifungal susceptibility testing was performed using the broth microdilution method according to the NCCLS M27-A guidelines (National Committee for Clinical Laboratory Standards. 1997, Reference method for broth dilution antifungal susceptibility testing of yeasts and approved standard NCCLS document M27-A. National Committee for Clinical Laboratory Standards, Wayne, Pa.). The organisms were removed from frozen glycerol stock (10% sterile glycerol suspensions stored at −70° C.), subcultured onto Sabouraud's dextrose plates, and incubated at 35° C. After 48 h of incubation, the plates were inspected for purity. To prepare stationary growth phase yeast, a colony was taken from the agar plate and transferred into 5 mL Sabouraud-dextrose broth and incubated for 48 h at 35° C. Cells were centrifuged at 1,000×g for 10 min and the pellet was washed twice with distilled water. Cells were counted and suspended in RPMI 1640 medium buffered to pH 7.0 with 0.165 mol l^−1 morpholinepropanesulphonic acid (MOPS) buffer (Sigma) to obtain the two times test inoculum (1×10^3 to 5×10^3 CFU/mL). Each well of 96 U-shaped well-plates received 100 μl of each antifungal peptides in concentrations from 10^−4 to 7.8×10^−7 M and 100 μl of the two-times inoculum to a final yeast concentration of 0.5×10−[…] cells ml^−1
(§2) The MIC90, i.e. the minimum inhibitory concentrations endpoint determined as 90% reduction in turbidity measured using a spectrophotometer (Titertek multiscan at 690 nm wave length).

C. krusei = assay type: cell-based, Candida krusei
Experimental: as §1, §2

C. albicans = assay type: cell-based, Candida albicans
Experimental: as §1, §2

[1] = tested on: Staphylococcus aureus ATCC 29213; assay type: cell-based
Experimental: (§3) The bacterial strains Pseudomonas aeruginosa ATCC 27853 and Staphylococcus aureus ATCC 29213 were grown in 2% Bacto Peptone water (Difco 1807-17-4) until growth was exponential. A standard microdilution technique with an inoculum of 2×10^6 CFU/mL was used. The minimal inhibitory concentration (MIC) of the peptides was determined in 1% Bacto Peptone water after incubation overnight at 37° C.

[2] = tested on: Pseudomonas aeruginosa ATCC 27853; assay type: cell-based
Experimental: as §3

| Molecule | MIC 90 at 48 hours (C. glabrata; C. glabrata 18012, 35° C.) | MIC 90 at 48 hours (C. glabrata; C. glabrata 995651, 35° C.) | MIC 90 at 48 hours (C. glabrata; C. glabrata 995667, 35° C.) | MIC 90 at 48 hours (C. krusei) | MIC 90 at 48 hours (C. krusei; C. krusei 995668, 35° C.) | MIC 90 at 48 hours (C. albicans) | MIC 90 at 48 hours (C. albicans; C. albicans 000954, 35° C.) | MIC 90 at 48 hours (C. albicans; C. albicans 011587, 35° C.) | MIC 90 at 48 hours (C. albicans; C. albicans 983201-R1, 35° C.) | MIC 90 at 48 hours (C. albicans; C. albicans 991185, 35° C.) | MIC 90 at 48 hours (C. albicans; C. albicans 994199, 35° C.) | MIC 90 at 48 hours (C. albicans; C. albicans 995147, 35° C.) | MIC 90 at 48 hours (C. albicans; C. albicans ATCC 24433, 35° C.) | MIC 90 at 48 hours (C. albicans; C. albicans ATCC 76615, 35° C.) | MIC 90 at 48 hours (C. albicans; C. albicans 995439, 35° C.) | MIC 90 at 48 hours (C. krusei; C. krusei 004490, 35° C.) | MIC 90 at 48 hours (C. krusei; C. krusei 991388, 35° C.) | MIC (minimal inhibitory concentration) [1] | MIC (minimal inhibitory concentration) [2] | MIC 90 at 48 hours (C. glabrata) |
| --- | --- | --- | --- | --- | --- | --- | --- | --- | --- | --- | --- | --- | --- | --- | --- | --- | --- | --- | --- | --- |
| CC(C)[C@H](NC(=O)[C@H](Cc1ccccc1)NC(=O)[C@H](CCCCN)NC(=O)[C@H](Cc1ccccc1)NC(=O)[C@H](Cc1c[nH]c2ccccc12)NC(=O)[C@H](CCCNC(=N)N)NC(=O)[C@@H](Cc1ccc2ccccc2c1)NC(=O)[C@@H](N)Cc1c[nH]cn1)C(N)=O [MSH0713, H-His-D(2)-Nal-Arg-Trp-Phe-Lys-Phe-Val-NH2] (H-H[d2Nal]RWFKFV-NH2) | no | no | no | 122 µg/mL (≈ 100 µM) | no |  |  |  |  |  |  |  |  |  |  |  |  |  |  |  |
| CC(C)[C@H](NC(=O)[C@H](Cc1ccccc1)NC(=O)[C@H](CCCCN)NC(=O)[C@@H](NC(=O)[C@H](Cc1c[nH]c2ccccc12)NC(=O)[C@H](CCCNC(=N)N)NC(=O)[C@@H](Cc1ccc2ccccc2c1)NC(=O)[C@@H](N)Cc1c[nH]cn1)C(C)(C)C)C(N)=O [MSH0707, H-His-D(2)-Nal-Arg-Trp-tBuGly-Lys-Phe-Val-NH2] (H-H[d2Nal]RW[Tle]KFV-NH2) | no | no | no | 118 µg/mL (≈ 99.9 µM) | no | 118 µg/mL (≈ 99.9 µM) | no | no | no | no | no | no | no | no |  |  |  |  |  |  |
| CC(C)[C@H](NC(=O)[C@H](Cc1ccccc1)NC(=O)[C@H](CCCCN)NC(=O)C1(NC(=O)[C@H](Cc2c[nH]c3ccccc23)NC(=O)[C@H](CCCNC(=N)N)NC(=O)[C@@H](Cc2ccc3ccccc3c2)NC(=O)[C@@H](N)Cc2c[nH]cn2)CCCC1)C(N)=O [MSH0705, H-His-D(2)-Nal-Arg-Trp-Cpa-Lys-Phe-Val-NH2] (H-H[d2Nal]RW[Ac5c]KFV-NH2) | no | no | no | 117 µg/mL (≈ 99.2 µM) |  |  |  |  |  |  |  |  |  |  |  |  |  |  |  |  |
| H-His-D(2)-Nal-Arg-Trp-Acpc-Lys-Phe-Val-NH2 [MSH0706] | no | no |  |  | no |  | no | no | no | no | no | no | no | no | no | no | no |  |  |  |
| CC(C)[C@H](NC(=O)[C@H](Cc1ccccc1)NC(=O)[C@H](CCCCN)NC(=O)C1(NC(=O)[C@H](Cc2c[nH]c3ccccc23)NC(=O)[C@H](CCCNC(=N)N)NC(=O)[C@@H](Cc2ccc3ccccc3c2)NC(=O)[C@@H](N)Cc2c[nH]cn2)CCCCC1)C(N)=O [MSH0712, H-His-D(2)-Nal-Arg-Trp-Aoca-Lys-Phe-Val-NH2] (H-H[d2Nal]RW[Ac6c]KFV-NH2) | no | no | no |  |  | 60 µg/mL (≈ 50.3 µM) |  |  |  |  |  |  |  |  |  |  |  |  |  |  |
| CC(C)[C@H](NC(=O)[C@H](Cc1ccccc1)NC(=O)[C@H](CCCCN)NC(=O)C1(NC(=O)[C@H](Cc2c[nH]c3ccccc23)NC(=O)[C@H](CCCNC(=N)N)NC(=O)[C@@H](Cc2ccc3ccccc3c2)NC(=O)[C@@H](N)Cc2c[nH]cn2)CCC1)C(N)=O [MSH0709, H-His-D(2)-Nal-Arg-Trp-Cybu-Lys-Phe-Val-NH2] (H-H[d2Nal]RW[Ac4c]KFV-NH2) | no | no | no | 117 µg/mL (≈ 100 µM) |  | 117 µg/mL (≈ 100 µM) | no |  | no |  |  | no | no | no |  |  |  |  |  |  |
| CC(C)[C@H](NC(=O)[C@H](Cc1ccccc1)NC(=O)[C@H](CCCCN)NC(=O)[C@H](CC1CCCCC1)NC(=O)[C@H](Cc1c[nH]c2ccccc12)NC(=O)[C@H](CCCNC(=N)N)NC(=O)[C@@H](Cc1ccc2ccccc2c1)NC(=O)[C@@H](N)Cc1c[nH]cn1)C(N)=O [MSH0704, H-His-D(2)-Nal-Arg-Trp-Cha-Lys-Phe-Val-NH2] (H-H[d2Nal]RW[Cha]KFV-NH2) |  |  |  |  |  |  |  |  |  |  |  |  |  |  |  |  |  | 31 µg/mL (≈ 25.4 µM) | 61 µg/mL (≈ 49.9 µM) | 122 µg/mL (≈ 99.9 µM) |
| H-His-D(2)-Nal-Arg-Trp-Ala-Lys-Phe-Val-NH2 [MSH0703] | no | no | no |  | no |  | no | no | no | no | no | no | no | no | no | no | no |  |  |  |
| H-His-D(2)-Nal-Arg-Trp-β-AA-Lys-Phe-Val-NH2 [MSH0710] | no | no | no |  | no |  | no | no | no | no | no | no | no | no | no | no | no |  |  |  |
| CC(C)[C@H](NC(=O)[C@H](Cc1ccccc1)NC(=O)[C@H](CCCCN)NC(=O)C(C)(C)NC(=O)[C@H](Cc1c[nH]c2ccccc12)NC(=O)[C@H](CCCNC(=N)N)NC(=O)[C@@H](Cc1ccc2ccccc2c1)NC(=O)[C@@H](N)Cc1c[nH]cn1)C(N)=O [MSH0702, H-His-D(2)-Nal-Arg-Trp-Aib-Lys-Phe-Val-NH2] (H-H[d2Nal]RW[Aib]KFV-NH2) | no | no | no | 115 µg/mL (≈ 99.7 µM) |  | 115 µg/mL (≈ 99.7 µM) | no |  | no | no | no | no | no | no | no |  |  |  |  |  |
| CC(C)[C@H](NC(=O)[C@H](Cc1ccccc1)NC(=O)[C@H](CCCCN)NC(=O)C1(NC(=O)[C@H](Cc2c[nH]c3ccccc23)NC(=O)[C@H](CCCNC(=N)N)NC(=O)[C@@H](Cc2ccc3ccccc3c2)NC(=O)[C@@H](N)Cc2c[nH]cn2)Cc2ccccc2C1)C(N)=O [MSH0708, H-His-D(2)-Nal-Arg-Trp-Aic-Lys-Phe-Val-NH2] (H-H[d2Nal]RW[Aic]KFV-NH2) |  |  |  |  |  |  |  |  |  |  |  |  |  |  |  |  |  | 31 µg/mL (≈ 25.3 µM) | 61 µg/mL (≈ 49.7 µM) | 123 µg/mL (≈ 100 µM) |
| H-His-D(2)-Nal-Arg-Trp-Gly-Gly-Lys-Phe-Val-NH2 [MSH0701] | no | no | no |  | no |  | no | no | no | no | no | no | no | no | no | no | no |  |  |  |
